Experimental data reported in article PMC6449406, “Classification of the human phox homology (PX) domains based on their phosphoinositide binding specificities” (Nature Communications, 2019).

How the values were obtained:
SNX25 PX domain [1] = target: T1, SNX25 PX domain (Homo sapiens, UniProt Q9H3E2); experiment: 1H-15N HSQC NMR titration; type: binding; conditions: pH 7.0, 100 mM NaCl, 298 K; secondary site (Lys734)
T1 construct: PX domain only, 15N-labelled, from GST fusion in E. coli
T1 sequence (Q9H3E2 506-628): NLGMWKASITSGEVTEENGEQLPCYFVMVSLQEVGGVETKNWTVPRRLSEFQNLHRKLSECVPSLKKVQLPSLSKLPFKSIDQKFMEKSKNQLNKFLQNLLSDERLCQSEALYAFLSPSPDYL

SNX1 = target: T2, SNX1 (Homo sapiens, UniProt Q13596); experiment: biochemical; parameters: ITC, soluble phosphoinositide headgroup analogue titrated into purified PX domain, 1:1 fit; conditions: ITC, 20 uM PX domain in cell
T2 construct: PX domain only, N-terminal GST removed by thrombin, E. coli
Text: (§1) We next used isothermal titration calorimetry (ITC) to measure the binding of selected PX domains to soluble phosphoinositide headgroup analogues (Supplementary Figures 2, 3; Supplementary Table 4). These experiments quantitatively supported the results of the liposome pelleting assays for all of the PX domains tested. As an orthogonal method of quantitation, we used biolayer interferometry (BLItz) to measure the interactions of PX proteins with different phosphoinositide-containing membranes (Supplementary Figures 4, 5; Supplementary Table 5). In these experiments, liposomes containing a small amount of biotinylated lipids were coupled to streptavidin sensors, and dipped into solutions containing the PX domains at a single concentration of 20 μM. Again, the results of these liposome-binding experiments using BLItz correlated well with both ITC and liposome pelleting assays. The dissociation constants derived from BLItz analyses were generally in agreement with those from ITC and correlated well with the qualitative interactions observed in pelleting assays. As summarized in Supplementary Table 1, many previous reports have described interactions of human PX domain proteins with a variety of different phosphoinositide lipids, as well as other lipids such as phosphatidylserine (PS) and phosphatidic acid (PA) that may promote recruitment to various cellular organelles and membrane domains. Our aim was to perform parallel comparisons of as many human PX domains as possible, using qualitative and quantitative approaches to measure binding to both membrane mimetics and soluble phosphoinositide headgroups. […] Samples were subjected to ultracentrifugation followed by SDS-PAGE and Coomassie staining of the unbound supernatant (S) and bound pellet (P) fractions. b Water-soluble PtdIns3P and PtdIns(3,4)P2 headgroup analogues (500 μM) were titrated into the SGK3 PX domain (20 μM) and measured by ITC. […]

SNX2 = target: T3, SNX2 (Homo sapiens, UniProt O60749); experiment: biochemical; parameters: ITC, soluble phosphoinositide headgroup analogue titrated into purified PX domain, 1:1 fit; conditions: ITC, 20 uM PX domain in cell
T3 construct: PX domain only, N-terminal GST removed by thrombin, E. coli
T3 sequence (O60749 140-269 limits assumed): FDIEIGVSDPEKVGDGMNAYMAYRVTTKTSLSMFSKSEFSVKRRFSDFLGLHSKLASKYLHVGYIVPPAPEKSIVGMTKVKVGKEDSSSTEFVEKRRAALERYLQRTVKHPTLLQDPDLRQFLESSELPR
Text: as §1

SNX25 PX domain [2] = target: T1, SNX25 PX domain; experiment: biochemical; parameters: ITC, soluble phosphoinositide headgroup analogue titrated into purified PX domain, 1:1 fit; conditions: ITC, 20 uM PX domain in cell
Text: as §1

SNX23 = target: T4, SNX23 (Homo sapiens, UniProt Q96L93); experiment: biochemical; parameters: ITC titration of soluble phosphoinositide headgroup analogue into PX domain, Kd
T4 construct: gene KIF16B; PX domain, GST removed
T4 sequence (Q96L93 1-1317): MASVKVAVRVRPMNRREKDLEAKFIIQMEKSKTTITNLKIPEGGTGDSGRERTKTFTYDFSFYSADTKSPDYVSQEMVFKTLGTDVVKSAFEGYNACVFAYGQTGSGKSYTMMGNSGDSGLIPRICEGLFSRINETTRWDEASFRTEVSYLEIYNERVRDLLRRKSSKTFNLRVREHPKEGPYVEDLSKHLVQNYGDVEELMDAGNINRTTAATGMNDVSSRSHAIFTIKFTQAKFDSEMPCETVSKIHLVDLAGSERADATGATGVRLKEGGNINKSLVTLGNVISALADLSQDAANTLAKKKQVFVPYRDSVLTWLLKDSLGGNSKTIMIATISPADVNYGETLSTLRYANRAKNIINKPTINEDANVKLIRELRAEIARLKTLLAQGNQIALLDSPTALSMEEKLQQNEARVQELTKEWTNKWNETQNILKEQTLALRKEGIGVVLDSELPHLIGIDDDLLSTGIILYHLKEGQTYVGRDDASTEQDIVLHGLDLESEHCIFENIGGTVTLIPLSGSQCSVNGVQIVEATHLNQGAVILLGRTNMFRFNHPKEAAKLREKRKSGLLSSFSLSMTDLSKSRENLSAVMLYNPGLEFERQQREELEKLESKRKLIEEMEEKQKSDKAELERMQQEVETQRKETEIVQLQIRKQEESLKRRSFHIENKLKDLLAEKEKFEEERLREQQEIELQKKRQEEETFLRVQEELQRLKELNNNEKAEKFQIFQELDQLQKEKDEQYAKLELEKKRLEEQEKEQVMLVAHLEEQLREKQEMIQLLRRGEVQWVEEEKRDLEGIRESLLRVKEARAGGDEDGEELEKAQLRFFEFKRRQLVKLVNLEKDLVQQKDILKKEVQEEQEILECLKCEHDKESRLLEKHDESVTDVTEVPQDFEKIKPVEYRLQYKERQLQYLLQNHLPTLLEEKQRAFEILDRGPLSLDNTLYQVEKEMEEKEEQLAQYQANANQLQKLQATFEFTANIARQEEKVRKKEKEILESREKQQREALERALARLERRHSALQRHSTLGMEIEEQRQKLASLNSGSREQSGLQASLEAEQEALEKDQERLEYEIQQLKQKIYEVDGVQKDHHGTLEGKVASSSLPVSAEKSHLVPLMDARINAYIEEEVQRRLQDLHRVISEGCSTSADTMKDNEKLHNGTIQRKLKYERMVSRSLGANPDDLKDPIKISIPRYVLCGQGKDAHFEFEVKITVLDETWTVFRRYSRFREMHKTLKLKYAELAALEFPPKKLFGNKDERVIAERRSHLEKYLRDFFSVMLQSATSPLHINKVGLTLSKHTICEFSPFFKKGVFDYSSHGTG
Text: We next used isothermal titration calorimetry (ITC) to measure the binding of selected PX domains to soluble phosphoinositide headgroup analogues (Supplementary Figures 2, 3; Supplementary Table 4). These experiments quantitatively supported the results of the liposome pelleting assays for all of the PX domains tested. As an orthogonal method of quantitation, we used biolayer interferometry (BLItz) to measure the interactions of PX proteins with different phosphoinositide-containing membranes (Supplementary Figures 4, 5; Supplementary Table 5). In these experiments, liposomes containing a small amount of biotinylated lipids were coupled to streptavidin sensors, and dipped into solutions containing the PX domains at a single concentration of 20 μM. Again, the results of these liposome-binding experiments using BLItz correlated well with both ITC and liposome pelleting assays. The dissociation constants derived from BLItz analyses were generally in agreement with those from ITC and correlated well with the qualitative interactions observed in pelleting assays. Supplementary Information Supplementary Table 1. Previously reported structures and PtdInsP-binding specificities of mammalian PX proteins. Supplementary Table 2. PX domain constructs used in this study. Supplementary Table 3. […] PX domain binding to phosphoinositides measured by ITC.

SNX27 = target: T5, SNX27 (Homo sapiens, UniProt Q96L92); experiment: liposome pelleting; type: binding; conditions: 10 mol% lipid in POPC/POPE liposomes, 20 µM protein, pH 7.2, 125 mM NaCl
T5 construct: PX domain only, N-terminal GST removed by thrombin, E. coli

SNX7 = target: T6, SNX7 (Homo sapiens, UniProt Q9UNH6); experiment: liposome pelleting; type: binding; conditions: 10 mol% lipid in POPC/POPE liposomes, 20 µM protein, pH 7.2, 125 mM NaCl
T6 construct: PX domain only, N-terminal GST removed by thrombin, E. coli
T6 sequence (Q9UNH6 30-151 limits assumed): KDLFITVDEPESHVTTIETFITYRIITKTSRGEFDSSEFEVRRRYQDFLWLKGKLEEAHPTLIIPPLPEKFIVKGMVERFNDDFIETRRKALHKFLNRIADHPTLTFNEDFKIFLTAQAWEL

SNX17 = target: T7, SNX17 (Homo sapiens, UniProt Q15036); experiment: liposome pelleting; type: binding; conditions: 10 mol% lipid in POPC/POPE liposomes, 20 µM protein, pH 7.2, 125 mM NaCl
T7 construct: PX domain only, N-terminal GST removed by thrombin, E. coli
T7 sequence (Q15036 1-109 limits assumed): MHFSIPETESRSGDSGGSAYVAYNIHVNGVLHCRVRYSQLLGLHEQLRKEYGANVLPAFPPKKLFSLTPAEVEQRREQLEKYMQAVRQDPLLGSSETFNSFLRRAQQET

SNX16 = target: T8, SNX16 (Homo sapiens, UniProt P57768); experiment: liposome pelleting; type: binding; conditions: 10 mol% lipid in POPC/POPE liposomes, 20 µM protein, pH 7.2, 125 mM NaCl
T8 construct: PX domain only, N-terminal GST removed by thrombin, E. coli
T8 sequence (P57768 105-218 limits assumed): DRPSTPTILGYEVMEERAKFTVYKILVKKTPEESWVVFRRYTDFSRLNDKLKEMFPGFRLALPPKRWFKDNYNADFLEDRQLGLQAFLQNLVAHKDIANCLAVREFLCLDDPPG

SNX3 = target: T9, SNX3 (Homo sapiens, UniProt O60493); experiment: liposome pelleting; type: binding; conditions: 10 mol% lipid in POPC/POPE liposomes, 20 µM protein, pH 7.2, 125 mM NaCl
T9 construct: PX domain only, N-terminal GST removed by thrombin, E. coli

PXK = target: T10, PXK (Homo sapiens, UniProt Q7Z7A4); experiment: liposome pelleting; type: binding; conditions: 10 mol% lipid in POPC/POPE liposomes, 20 µM protein, pH 7.2, 125 mM NaCl
T10 construct: PX domain only, N-terminal GST removed by thrombin, E. coli
T10 sequence (Q7Z7A4 14-126 limits assumed): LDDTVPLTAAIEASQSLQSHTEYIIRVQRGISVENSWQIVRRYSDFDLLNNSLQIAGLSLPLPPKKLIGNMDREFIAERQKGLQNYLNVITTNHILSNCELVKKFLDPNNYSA

SNX19 = target: T11, SNX19 (Homo sapiens, UniProt Q92543); experiment: liposome pelleting; type: binding; conditions: 10 mol% lipid in POPC/POPE liposomes, 20 µM protein, pH 7.2, 125 mM NaCl
T11 construct: a GST-tagged form was also made), E. coli
T11 sequence (Q92543 533-663 limits assumed): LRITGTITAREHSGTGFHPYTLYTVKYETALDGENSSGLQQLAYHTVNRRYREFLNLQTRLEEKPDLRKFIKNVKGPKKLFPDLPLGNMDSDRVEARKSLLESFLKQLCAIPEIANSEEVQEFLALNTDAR

p40phox = target: T12, p40phox (Homo sapiens, UniProt Q15080); experiment: liposome pelleting; type: binding; conditions: 10 mol% lipid in POPC/POPE liposomes, 20 µM protein, pH 7.2, 125 mM NaCl
T12 construct: gene NCF4; PX domain only, N-terminal GST removed by thrombin, E. coli
T12 sequence (Q15080 19-140 limits assumed): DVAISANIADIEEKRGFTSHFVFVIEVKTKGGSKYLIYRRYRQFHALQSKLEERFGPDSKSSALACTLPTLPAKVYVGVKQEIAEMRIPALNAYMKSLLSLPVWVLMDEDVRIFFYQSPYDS

Compound	1H-15N HSQC NMR titration (SNX25 PX domain [1])	Kd (SNX1) [µM]	Kd (SNX2) [µM]	Kd (SNX25 PX domain [2]) [µM]	Kd (SNX23) [µM]	liposome pelleting (SNX27)	liposome pelleting (SNX7)	liposome pelleting (SNX17)	liposome pelleting (SNX16)	liposome pelleting (SNX3)	liposome pelleting (PXK)	liposome pelleting (SNX19)	liposome pelleting (p40phox)
CCCCCCCC(=O)OC[C@H](COP(=O)(O)O[C@@H]1[C@H](O)[C@H](OP(=O)(O)O)[C@@H](O)[C@H](OP(=O)(O)O)[C@H]1O)OC(=O)CCCCCCC [PtdIns(3,5)P2 headgroup analogue]	significant chemical shift perturbations were observed with di- and tri-phosphorylated phosphoinositides (PIP2 and PIP3)	42	35.8	12.1	11.5								
CCCCCCCC(=O)OC[C@H](COP(=O)(O)O[C@@H]1[C@H](O)[C@H](OP(=O)(O)O)[C@@H](O)[C@H](O)[C@H]1O)OC(=O)CCCCCCC [PtdIns3P, 1,2-dioctanoyl-sn-glycero-3-(phosphoinositol-3-phosphate)]						exclusive interaction with liposomes containing PtdIns3P (SNX3, SNX7, SNX19, SNX17, SNX27	exclusive interaction with liposomes containing PtdIns3P (SNX3, SNX7	exclusive interaction with liposomes containing PtdIns3P (SNX3, SNX7, SNX19, SNX17	(SNX3, SNX7, SNX19, SNX17, SNX27, p40phox, PXK, and SNX16)	exclusive interaction with liposomes containing PtdIns3P (SNX3	(SNX3, SNX7, SNX19, SNX17, SNX27, p40phox, PXK, and SNX16)	exclusive interaction with liposomes containing PtdIns3P (SNX3, SNX7, SNX19	(SNX3, SNX7, SNX19, SNX17, SNX27, p40phox, PXK, and SNX16)
